Patent US6861236B2, “Export and modification of (poly)peptides in the lantibiotic way” (Applied Nanosystems B.V., priority 2002, dated 2005)

System: nisin sensitive strain
Experiment: agar well (halo) assay for antibacterial activity
Assay type: cell-based
Conditions: Example 5: trypsin-treated ziptipped material/crude supernatant of E. coli SF120 with NisABTC
Experimental: The above ZIPTIPPED™ material and the crude supernatant is treated after outer membrane disruption with trypsin. This material is applied to the agar well assay to determine antibacterial activity.
Materials and methods. […] NZ9000+pNG-NisABTC were grown and induced. The supernatant is analyzed as in Example 1. Trypsin treated supernatant was subjected to the agar well assay by pouring the trypsinated supernatant in an agar well and overlaying with a nisin sensitive strain.
The mutation was checked by PCR and sequencing. The above-generated ΔNisP strain was grown overnight in M17 medium (Terzaghi and Sandine, 1975, Appl. Microbiol. 29: 807-813), diluted 100 fold and grown to OD600 equal to 0.4. […] After 1, 2 and 3 hours, more 0.2 mM pmsf, 0.2 mM TPCK are added and followed by overnight incubation. […] Elution and experiments a) and b).

nisin
antimicrobial activity in the agar well assay: antimicrobial activity
